Experimental data taken from ChEMBL document CHEMBL1201861, “Genomics of Drug Sensitity in Cancer screening data, Wellcome Trust Sanger Institute”.

Experiments:
Assay in all cases: cells
[1] = system: COLO-824; assay type: functional, cell-based, Homo sapiens; conditions: Homo sapiens, COLO-824
Description: SANGER: Inhibition of human COLO-824 cell growth in a cell viability assay.

[2] = system: COR-L88; assay type: functional, cell-based, Homo sapiens; conditions: Homo sapiens, COR-L88;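 note: growth inhibition of COR-L88 cells, read out with a cell viability assay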
Description: SANGER: Inhibition of human COR-L88 cell growth in a cell viability assay.

[3] = system: DJM-1; assay type: functional, cell-based, Homo sapiens; conditions: Homo sapiens, DJM-1;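 note: growth inhibition of human DJM-1 cells, read out by a cell viability assay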
Description: SANGER: Inhibition of human DJM-1 cell growth in a cell viability assay.

[4] = system: DMS-114; assay type: functional, cell-based, Homo sapiens; conditions: Homo sapiens, DMS-114
[5] = system: ES4; assay type: functional, cell-based, Homo sapiens; conditions: Homo sapiens, ES4;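 note: growth inhibition of human ES4 cells, read out by a cell viability assay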
Description: SANGER: Inhibition of human ES4 cell growth in a cell viability assay.

[6] = system: GR-ST; assay type: functional, cell-based, Homo sapiens; conditions: Homo sapiens, GR-ST
Description: SANGER: Inhibition of human GR-ST cell growth in a cell viability assay.

[7] = system: HAL-01; assay type: functional, cell-based, Homo sapiens; conditions: Homo sapiens, HAL-01;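 note: growth inhibition of human HAL-01 cells, read out with a cell viability assay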
Description: SANGER: Inhibition of human HAL-01 cell growth in a cell viability assay.

[8] = system: HC-1; assay type: functional, cell-based, Homo sapiens; conditions: Homo sapiens, HC-1;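 note: growth inhibition of HC-1 cells measured by a cell viability assay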
Description: SANGER: Inhibition of human HC-1 cell growth in a cell viability assay.

[9] = system: HCC1187; assay type: functional, cell-based, Homo sapiens; conditions: Homo sapiens, HCC1187;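 note: growth inhibition of HCC1187 cells, read out with a cell viability assay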
Description: SANGER: Inhibition of human HCC1187 cell growth in a cell viability assay.

[10] = system: HCC2157; assay type: functional, cell-based, Homo sapiens; conditions: Homo sapiens, HCC2157;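 note: growth inhibition of the cancer cell line, read out as cell viability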
Description: SANGER: Inhibition of human HCC2157 cell growth in a cell viability assay.

[11] = system: HCC2218; assay type: functional, cell-based, Homo sapiens; conditions: Homo sapiens, HCC2218;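 note: cell viability assay read-out, with IC50 given as the concentration that inhibits growth of the cell line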
Description: SANGER: Inhibition of human HCC2218 cell growth in a cell viability assay.

[12] = system: HT; assay type: functional, cell-based, Homo sapiens; conditions: Homo sapiens, HT
Description: SANGER: Inhibition of human HT cell growth in a cell viability assay.

[13] = system: J-RT3-T3-5; assay type: functional, cell-based, Homo sapiens; conditions: Homo sapiens, J-RT3-T3-5;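 note: cell viability assay measuring growth inhibition of human J-RT3-T3-5 cells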
Description: SANGER: Inhibition of human J-RT3-T3-5 cell growth in a cell viability assay.

[14] = system: KLE; assay type: functional, cell-based, Homo sapiens; conditions: Homo sapiens, KLE;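 note: growth inhibition of human KLE cells, read out with a cell viability assay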
Description: SANGER: Inhibition of human KLE cell growth in a cell viability assay.

[15] = system: KM-H2; assay type: functional, cell-based, Homo sapiens; conditions: Homo sapiens, KM-H2;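 note: growth inhibition of KM-H2 cells, read out by a cell viability assay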
Description: SANGER: Inhibition of human KM-H2 cell growth in a cell viability assay.

[16] = system: L-428; assay type: functional, cell-based, Homo sapiens; conditions: Homo sapiens, L-428
Description: SANGER: Inhibition of human L-428 cell growth in a cell viability assay.

[17] = system: LB831-BLC; assay type: functional, cell-based, Homo sapiens; conditions: Homo sapiens, LB831-BLC;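 note: growth inhibition of LB831-BLC cells, read out with a cell viability assay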
Description: SANGER: Inhibition of human LB831-BLC cell growth in a cell viability assay.

[18] = system: LOX IMVI; assay type: functional, cell-based, Homo sapiens; conditions: Homo sapiens, LOX IMVI
Description: SANGER: Inhibition of human LOXIMVI cell growth in a cell viability assay.

[19] = system: LS-411N; assay type: functional, cell-based, Homo sapiens; conditions: Homo sapiens, LS-411N
[20] = system: MFH-ino; assay type: functional, cell-based, Homo sapiens; conditions: Homo sapiens, MFH-ino;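 note: growth inhibition of human MFH-ino cells, read out by a cell viability assay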
Description: SANGER: Inhibition of human MFH-ino cell growth in a cell viability assay.

[21] = system: MFM-223; assay type: functional, cell-based, Homo sapiens; conditions: Homo sapiens, MFM-223
Description: SANGER: Inhibition of human MFM-223 cell growth in a cell viability assay.

[22] = system: MZ2-MEL; assay type: functional, cell-based, Homo sapiens; conditions: Homo sapiens, MZ2-MEL;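 note: growth inhibition of MZ2-MEL cells read out with a cell viability assay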
Description: SANGER: Inhibition of human MZ2-MEL cell growth in a cell viability assay.

[23] = system: Mo; assay type: functional, cell-based, Homo sapiens; conditions: Homo sapiens, Mo
Description: SANGER: Inhibition of human Mo-T cell growth in a cell viability assay.

[24] = system: NCI-H1770; assay type: functional, cell-based, Homo sapiens; conditions: Homo sapiens, NCI-H1770;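 note: growth inhibition of NCI-H1770 cells determined with a viability readout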
Description: SANGER: Inhibition of human NCI-H1770 cell growth in a cell viability assay.

[25] = system: NCI-H1838; assay type: functional, cell-based, Homo sapiens; conditions: Homo sapiens, NCI-H1838;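 note: growth inhibition of NCI-H1838 cells, determined with a cell viability readout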
Description: SANGER: Inhibition of human NCI-H1838 cell growth in a cell viability assay.

[26] = system: NCI-H2126; assay type: functional, cell-based, Homo sapiens; conditions: Homo sapiens, NCI-H2126;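 note: growth inhibition of the cancer cell line, determined with a cell viability readout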
Description: SANGER: Inhibition of human NCI-H2126 cell growth in a cell viability assay.

[27] = system: SNU1; assay type: functional, cell-based, Homo sapiens; conditions: Homo sapiens, SNU1;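 note: growth inhibition of human NCI-SNU-1 cells, measured with a cell viability assay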
Description: SANGER: Inhibition of human NCI-SNU-1 cell growth in a cell viability assay.

[28] = system: ONS-76; assay type: functional, cell-based, Homo sapiens; conditions: Homo sapiens, ONS-76;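 note: growth inhibition of human ONS-76 cells, read out with a cell viability assay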
Description: SANGER: Inhibition of human ONS-76 cell growth in a cell viability assay.

[29] = system: RPMI-8226; assay type: functional, cell-based, Homo sapiens; conditions: Homo sapiens, RPMI-8226
Description: SANGER: Inhibition of human RPMI-8226 cell growth in a cell viability assay.

[30] = system: SBC-1; assay type: functional, cell-based, Homo sapiens; conditions: Homo sapiens, SBC-1;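 note: cell viability assay measuring growth inhibition of the SBC-1 cell line, IC50 being the concentration that halves growth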
Description: SANGER: Inhibition of human SBC-1 cell growth in a cell viability assay.

[31] = system: SCH; assay type: functional, cell-based, Homo sapiens; conditions: Homo sapiens, SCH;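 note: growth inhibition of human SCH cells, read out in a cell viability assay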
Description: SANGER: Inhibition of human SCH cell growth in a cell viability assay.

[32] = system: SH-4; assay type: functional, cell-based, Homo sapiens; conditions: Homo sapiens, SH-4;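 note: growth inhibition of SH-4 cells, read out with a cell viability assay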
Description: SANGER: Inhibition of human SH-4 cell growth in a cell viability assay.

[33] = system: SHP77; assay type: functional, cell-based, Homo sapiens, SHP-77; conditions: Homo sapiens, SHP77;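 note: growth inhibition of human SHP-77 cells measured by a cell viability assay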
Description: SANGER: Inhibition of human SHP-77 cell growth in a cell viability assay.

[34] = system: SJSA-1; assay type: functional, cell-based, Homo sapiens; conditions: Homo sapiens, SJSA-1;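 note: growth inhibition of human SJSA-1 cells, read out through a cell viability measurement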
Description: SANGER: Inhibition of human SJSA-1 cell growth in a cell viability assay.

[35] = system: SK-MEL-2; assay type: functional, cell-based, Homo sapiens; conditions: Homo sapiens, SK-MEL-2;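 note: growth inhibition of human SK-MEL-2 cells measured with a cell viability assay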
Description: SANGER: Inhibition of human SK-MEL-2 cell growth in a cell viability assay.

[36] = system: SK-UT-1; assay type: functional, cell-based, Homo sapiens; conditions: Homo sapiens, SK-UT-1;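 note: growth inhibition of SK-UT-1 cells, measured by a cell viability assay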
Description: SANGER: Inhibition of human SK-UT-1 cell growth in a cell viability assay.

[37] = system: SW 962; assay type: functional, cell-based, Homo sapiens; conditions: Homo sapiens, SW 962;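 note: growth inhibition of human SW962 cells, read out by a cell viability assay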
Description: SANGER: Inhibition of human SW962 cell growth in a cell viability assay.

[38] = system: A101D; assay type: functional, cell-based, Homo sapiens; conditions: Homo sapiens, A101D;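 note: growth inhibition of the cell line, measured with a viability assay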
Description: SANGER: Inhibition of human A101D cell growth in a cell viability assay.

[39] = system: A3-KAW; assay type: functional, cell-based, Homo sapiens; conditions: Homo sapiens, A3-KAW;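 note: growth inhibition of human A3-KAW cells, read out with a cell viability assay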
Description: SANGER: Inhibition of human A3-KAW cell growth in a cell viability assay.

[40] = system: A4-Fuk; assay type: functional, cell-based, Homo sapiens; conditions: Homo sapiens, A4-Fuk;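 note: growth inhibition of A4-Fuk cells, read out by a cell viability assay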
Description: SANGER: Inhibition of human A4-Fuk cell growth in a cell viability assay.

[41] = system: ACN; assay type: functional, cell-based, Homo sapiens; conditions: Homo sapiens, ACN;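 note: growth inhibition of the human ACN cell line, read out via cell viability testing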
Description: SANGER: Inhibition of human ACN cell growth in a cell viability assay.

[42] = system: AM-38; assay type: functional, cell-based, Homo sapiens; conditions: Homo sapiens, AM-38;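 note: growth inhibition of AM-38 cells of human origin, read out by a cell viability assay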
Description: SANGER: Inhibition of human AM-38 cell growth in a cell viability assay.

[43] = system: BB49-HNC; assay type: functional, cell-based, Homo sapiens; conditions: Homo sapiens, BB49-HNC;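 note: cell viability assay read-out, reported as inhibition of BB49-HNC cell growth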
Description: SANGER: Inhibition of human BB49-HNC cell growth in a cell viability assay.

[44] = system: TE-9; assay type: functional, cell-based, Homo sapiens; conditions: Homo sapiens, TE-9;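 note: cell growth inhibition, measured with a cell viability readout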
Description: SANGER: Inhibition of human TE-9 cell growth in a cell viability assay.

[45] = system: UACC-257; assay type: functional, cell-based, Homo sapiens; conditions: Homo sapiens, UACC-257
Description: SANGER: Inhibition of human UACC-257 cell growth in a cell viability assay.

COc1cc(-c2nn([C@H]3CC[C@H](N4CCN(C(C)=O)CC4)CC3)c3ncnc(N)c23)ccc1NC(=O)c1cc2ccccc2n1C
IC50 [1]: > 5120 nM | IC50 [2]: > 5120 nM | IC50 [3]: > 5120 nM | IC50 [4]: > 5120 nM | IC50 [5]: > 5120 nM | IC50 [6]: > 5120 nM | IC50 [7]: 3080 nM | IC50 [8]: 3190 nM | IC50 [9]: > 5120 nM | IC50 [10]: > 5120 nM | IC50 [11]: > 5120 nM | IC50 [12]: > 5120 nM | IC50 [13]: > 5120 nM | IC50 [14]: 2500 nM | IC50 [15]: > 5120 nM | IC50 [16]: > 5120 nM | IC50 [17]: 593 nM | IC50 [18]: > 5120 nM | IC50 [19]: > 5120 nM | IC50 [20]: 1160 nM | IC50 [21]: > 5120 nM | IC50 [22]: > 5120 nM | IC50 [23]: > 5120 nM | IC50 [24]: > 5120 nM | IC50 [25]: > 5120 nM | IC50 [26]: > 5120 nM | IC50 [27]: > 5120 nM | IC50 [28]: > 5120 nM | IC50 [29]: > 5120 nM | IC50 [30]: > 5120 nM | IC50 [31]: > 5120 nM | IC50 [32]: 913 nM | IC50 [33]: > 5120 nM | IC50 [34]: > 5120 nM | IC50 [35]: > 5120 nM | IC50 [36]: > 5120 nM | IC50 [37]: > 5120 nM | IC50 [38]: 3710 nM | IC50 [39]: > 5120 nM | IC50 [40]: > 5120 nM | IC50 [41]: > 5120 nM | IC50 [42]: > 5120 nM | IC50 [43]: > 5120 nM | IC50 [44]: > 5120 nM | IC50 [45]: > 5120 nM

OCCCNc1cc(-c2ccnc(Nc3cccc(Cl)c3)n2)ccn1
IC50 [1]: > 256 nM | IC50 [2]: > 256 nM | IC50 [3]: > 256 nM | IC50 [4]: > 256 nM | IC50 [5]: 35.1 nM | IC50 [6]: 174 nM | IC50 [7]: 66 nM | IC50 [8]: 52.2 nM | IC50 [9]: > 256 nM | IC50 [10]: 206 nM | IC50 [11]: > 256 nM | IC50 [12]: 66.2 nM | IC50 [13]: 83.2 nM | IC50 [14]: 55.6 nM | IC50 [15]: > 256 nM | IC50 [16]: 112 nM | IC50 [17]: 32.5 nM | IC50 [18]: 202 nM | IC50 [19]: 37.9 nM | IC50 [20]: 80.7 nM | IC50 [21]: > 256 nM | IC50 [22]: 62.7 nM | IC50 [23]: > 256 nM | IC50 [24]: > 256 nM | IC50 [25]: > 256 nM | IC50 [26]: > 256 nM | IC50 [27]: > 256 nM | IC50 [28]: 76.1 nM | IC50 [29]: 129 nM | IC50 [30]: > 256 nM | IC50 [31]: > 256 nM | IC50 [32]: > 256 nM | IC50 [33]: 155 nM | IC50 [34]: 60.7 nM | IC50 [35]: > 256 nM | IC50 [36]: 157 nM | IC50 [37]: 45.1 nM | IC50 [38]: 20.5 nM | IC50 [39]: 19.9 nM | IC50 [40]: 28 nM | IC50 [41]: 165 nM | IC50 [42]: > 256 nM | IC50 [43]: 96.3 nM | IC50 [44]: > 256 nM | IC50 [45]: > 256 nM
